Test results: doi:10.1101/2025.03.31.646301v1, “Discovery of Tankyrase scaffolding inhibitor specifically targeting the ARC4 peptide binding domain” (biorxiv, 2025)
Read-outs that look alike come from different tables or passages of the source.

Columns and labels:
TNKS2 ARC4 [1] = target: T1, TNKS2 ARC4 (Homo sapiens, UniProt Q9H2K2); parameters: DSF thermal shift of TNKS2 ARC4, stabilization over DMSO control; conditions: binder
T1 construct: ankyrin repeat cluster 4 domain; FRET: 6xHis-mCerulean (CFP) fusion; DSF, NMR, crystal: MBP and His tag cleaved by TEV, residues 487-649 printed for crystal; E. coli BL21(DE3)
T1 sequence (Q9H2K2 487-649): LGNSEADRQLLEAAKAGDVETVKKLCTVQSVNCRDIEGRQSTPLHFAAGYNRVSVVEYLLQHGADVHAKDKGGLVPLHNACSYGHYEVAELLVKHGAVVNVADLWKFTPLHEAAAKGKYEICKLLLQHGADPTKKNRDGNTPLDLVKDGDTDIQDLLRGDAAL
Description: Given the notable stabilization of the pyrrolone-based compounds from the Commercials Diversity collection, we decided to focus on their common scaffold for compound optimization. Pyrrolone is indeed a versatile moiety that is largely employed for the design of compounds with a variety of biological effects.[55] The nine primary hits were acquired from commercial suppliers, they underwent quality control, additional DSF validation and determination of potency through FRET-based IC50 measurements (Table 1). All the tested compounds include a benzodioxane moiety (R[1]), a [compound left out] group with substitutions in the para position (R[2]), and an R[3] group with an aliphatic character and a tertiary amine. […] In addition, all molecules, except for 7, have IC50 values below 100 µM. Among the nine molecules, 1 performed the best in terms of stabilization of TNKS2 ARC4 and potency. […] In the same position, the presence of a hydrophobic methyl group (3, 4), other halogen substituents (5) and alkoxy groups (6–9) is also tolerated, even if not optimal. […] A SAR investigation was conducted with purchased and synthesized analogues of 1 through FRET-based potency measurements and DSF assay with TNKS2 ARC4 (Table 2, Table S2). All the compounds commercially acquired underwent quality control. […] Changes to the length of the aliphatic chain at R[3] greatly impacts both potency and protein stabilization. […] The diethylamino-based substituent at R[3] […] Compounds 25 and 26 further indicate that the presence of tertiary amine at R[3] is not necessary to achieve binding. […] 5 Figure S2. DSF assay results for validation of primary hits identified in the EU-OPENSCREEN Commercials Diversity Library. (A) and (B) show DSF assay validation measurements of TNKS2 ARC4 with primary hits from the Commercial Diversity Library. Compounds are tested at 100 μM. They are named after their EU-OPENSCREEN identity codes and the identities are available for consultation on ECBD. 1,2 (A) and (B) show results from two independent experiments. For each experiment, each compound was tested with a single measurement, while controls (TNKS2 ARC4 with 100 μM optimized peptide, TNKS2 ARC4 with 100 μM DMSO) are studied in at least four replicates and errors are shown. Moreover, stabilization over the control (TNKS2 ARC4 with DMSO) is indicated (ΔTm °C). […] It was not possible to measure the melting curve of TNKS2 ARC4 in presence of EOS21552, EOS54043, EOS54043.

TNKS2 ARC4 [2] = target: T1, TNKS2 ARC4; experiment: biochemical; parameters: FRET competition: inhibition of CFP-ARC domain binding to YFP-REAGDGEE peptide
Procedure: The FRET assay for discovery of chemical probes targeting ARC and SAM domains of tankyrases was developed in a previous study.[52] The high-throughput screening of the EU-OPENSCREEN Pilot and Commercials Diversity libraries was performed at the Norwegian Centre for Molecular Biosciences and Medicine (NCMBM, formerly NCMM). For the primary screen, assay-ready plates containing library compound sufficient to reach a screening concentration of 30 µM were prepared on black shallow-well 384-microwell plates (Greiner bio-one small volume, high base, non-binding microplate black, 784900 or Fisherbrand™ 384-Well ShallowWell Polypropylene Microplates, 12-566-617, Fisher Scientific) using 30 nL of 10 mM DMSO compound stocks dispensed with an Echo 550 [compound left out] handler (Labcyte). Each screening plate also contained DMSO controls at equivalent volumes to compounds for positive, negative, and assay buffer blank controls, 16 wells per control type. Stock solutions of CFP-TNKS2 ARC4 and YFP-REAGDGEE or CFP-SAM(E897K) and YFP-SAM(Y920A) were combined and diluted in assay buffer (10 mM BTP pH 7, 3% weight/volume PEG 20000, 0.01% volume/volume Triton, 0.5 mM TCEP) to final concentrations of 100 nM and 200 nM or 150 and 300 nM, respectively. The positive control was prepared by addition of guanidine hydrochloride to the above assay buffer to a final concentration of 1M. A volume of 10 µL of these solutions was added to each well of the assay-ready plates using a BioTek MultiFlo FX dispenser (Agilent) equipped with 5 uL dispensing cassettes for the peristaltic pumps (screening solution and control) and a syringe pump (assay buffer blank). After [compound left out] handling, plates were incubated at RT for 30 minutes before reading fluorescence using a BioTek Synergy Neo2 plate reader (Agilent) with Gen5 software (version 3.02) at four wavelength combinations – 410/477, 410/527, 430/477, 430/527 – each with an excitation bandwidth of 20 nm and an emission bandwidth of 10 nm; a gain setting of 135; a “Normal” read speed with 10 msec delay after plate movement, 50 measurements per data point, low lamp energy, and a “Standard” dynamic range (0 to 99,999); and a read height of 4.5 mm. A SAR investigation was conducted with purchased and synthesized analogues of 1 through FRET-based potency measurements and DSF assay with TNKS2 ARC4 (Table 2, Table S2). All the compounds commercially acquired underwent quality control. […] Changes to the length of the aliphatic chain at R[3] greatly impacts both potency and protein stabilization. […] The diethylamino-based substituent at R[3] […] Compounds 25 and 26 further indicate that the presence of tertiary amine at R[3] is not necessary to achieve binding.

Question: With `COCCN1C(=O)C(O)=C(C(=O)c2ccc3c(c2)OCCO3)C1c1cccc(O)c1` (centres unmarked) [compound 35, 35] as the compound, how does the “ΔTm ± SD (°C)” value (TNKS2 ARC4 [1]) read?
Answer: Its value is 0.82 ± 0.38 °C.

Question: And the IC50 (TNKS2 ARC4 [2])?
Answer: Its IC50 is 305 µM.

Question: For `O=C(C1=C(O)C(=O)N(Cc2ccncc2)C1c1ccncc1)c1ccc2c(c1)OCCO2` (centres unmarked) [compound 44, 44], which “ΔTm ± SD (°C)” value (TNKS2 ARC4 [1]) is on record?
Answer: Its value is 0.21 ± 0.26 °C.

Question: What about the IC50 (TNKS2 ARC4 [2]) of the same compound?
Answer: Its IC50 is > 1000 µM.

Question: Which “ΔTm ± SD (°C)” value (TNKS2 ARC4 [1]) does the source give for `COc1ccc(C(=O)C2=C(O)C(=O)N(CCCN3CCOCC3)C2c2ccc(C)cc2)cc1OC` (centres unmarked) [compound 30, 30] here?
Answer: The value was 0.12 ± 0.25 °C.

Question: And the IC50 (TNKS2 ARC4 [2])?
Answer: The IC50 was > 1000 µM.

Question: With `O=C(C1=C(O)C(=O)N(CCCN2CCNCC2)C1c1cccc(O)c1)c1ccc2c(c1)OCCO2` (centres unmarked) [S2] as the compound, how does the “ΔTm ± SD (°C)” value (TNKS2 ARC4 [1]) read?
Answer: Its value is 0.80 ± 0.16 °C.

Question: And the IC50 (TNKS2 ARC4 [2])?
Answer: Its IC50 is 302 µM.

Question: Which “ΔTm ± SD (°C)” value (TNKS2 ARC4 [1]) does the source give for `COc1cc(C2C(C(=O)c3ccc4c(c3)OCCO4)=C(O)C(=O)N2CCCN2CCOCC2)ccc1O` (centres unmarked) [compound 45, 45] here?
Answer: The value was 2.32 ± 0.33 °C.

Question: And the IC50 (TNKS2 ARC4 [2]; inhibitor)?
Answer: The IC50 was 78 µM.

Question: With `O=C(C1=C(O)C(=O)N(CCCN2CCOCC2)C1c1ccc(F)cc1)c1ccc2c(c1)OCCO2` (centres unmarked) [compound 43, 43] as the compound, how does the “ΔTm ± SD (°C)” value (TNKS2 ARC4 [1]) read?
Answer: Its value is 1.61 ± 0.37 °C.

Question: And the IC50 (TNKS2 ARC4 [2])?
Answer: The IC50 was 114 µM.

Question: `Cc1ccc(C2C(C(=O)c3ccc4c(c3)OCCO4)=C(O)C(=O)N2Cc2ccccc2)cc1` (centres unmarked) [compound 37, 37] was tested. Which “ΔTm ± SD (°C)” value (TNKS2 ARC4 [1]) did it give?
Answer: Its value is 0.51 ± 0.31 °C.

Question: What about the IC50 (TNKS2 ARC4 [2]) of the same compound?
Answer: Its IC50 is 71 µM.

Question: What does the source list for `COCCCN1C(=O)C(O)=C(C(=O)c2ccc3c(c2)OCCO3)C1c1ccccc1` (centres unmarked) [compound 40, 40]?
Answer: ΔTm ± SD (°C) (TNKS2 ARC4 [1]): 0.47 ± 0.31 °C; IC50 (TNKS2 ARC4 [2]; inhibitor): 360 µM

Question: With `N=C(N)NCCCN1C(=O)C(O)=C(C(=O)c2ccc3c(c2)OCCO3)C1c1cccc(O)c1` (centres unmarked) [S5] as the compound, how does the “ΔTm ± SD (°C)” value (TNKS2 ARC4 [1]) read?
Answer: The value was 1.31 ± 0.17 °C.

Question: And the IC50 (TNKS2 ARC4 [2])?
Answer: The IC50 was 121 µM.

Question: With `COc1cccc(C(=O)C2=C(O)C(=O)N(CCCN3CCOCC3)C2c2ccc(C)cc2)c1` (centres unmarked) [compound 33, 33] as the compound, how does the “ΔTm ± SD (°C)” value (TNKS2 ARC4 [1]) read?
Answer: The value was 0.36 ± 0.33 °C.

Question: And the IC50 (TNKS2 ARC4 [2])?
Answer: The IC50 was > 1000 µM.

Question: With `O=C(C1=C(O)C(=O)N(CCCN2CCOCC2)C1c1ccccc1)c1ccc2c(c1)OCCO2` (centres unmarked) [compound 42, 42] as the compound, how does the “ΔTm ± SD (°C)” value (TNKS2 ARC4 [1]) read?
Answer: The value was 2.26 ± 0.34 °C.

Question: And the IC50 (TNKS2 ARC4 [2])?
Answer: Its IC50 is 101 µM.

Question: How did the “ΔTm ± SD (°C)” value (TNKS2 ARC4 [1]) turn out when `Cc1cc(C(=O)C2=C(O)C(=O)N(CCCN(C)C)C2c2ccc(O)cc2)ccc1OC(C)C` (centres unmarked) [compound 34, 34] was run?
Answer: The value was -0.08 ± 0.41 °C.

Question: And the IC50 (TNKS2 ARC4 [2])?
Answer: Its IC50 is > 1000 µM.

Question: `CCN(CC)CCCN1C(=O)C(O)=C(C(=O)c2ccc(OC)cc2)C1c1ccccc1` (centres unmarked) [compound 31, 31] was tested. Which “ΔTm ± SD (°C)” value (TNKS2 ARC4 [1]) did it give?
Answer: Its value is 1.46 ± 0.52 °C.

Question: What about the IC50 (TNKS2 ARC4 [2]) of the same compound?
Answer: The IC50 was 136 µM.

Question: Which results are given for `Cc1ccc(C2C(C(=O)c3ccc4c(c3)OCCO4)=C(O)C(=O)N2CCN(C)C)cc1` (centres unmarked) [compound 38, 38]?
Answer: ΔTm ± SD (°C) (TNKS2 ARC4 [1]): 0.67 ± 0.28 °C; IC50 (TNKS2 ARC4 [2]; inhibitor): 493 µM

Question: Which “ΔTm ± SD (°C)” value (TNKS2 ARC4 [1]) does the source give for `COc1ccc(C(=O)C2=C(O)C(=O)N(CCCN3CCOCC3)C2c2ccccc2)cc1OC` (centres unmarked) [compound 29, 29] here?
Answer: The value was 0.14 ± 0.25 °C.

Question: What about the IC50 (TNKS2 ARC4 [2]) of the same compound?
Answer: The IC50 was > 1000 µM.

Question: Which “ΔTm ± SD (°C)” value (TNKS2 ARC4 [1]) does the source give for `CCN(CC)CCN1C(=O)C(O)=C(C(=O)c2ccc3c(c2)OCCO3)C1c1ccccc1` (centres unmarked) [compound 39, 39] here?
Answer: Its value is 1.05 ± 0.36 °C.

Question: And the IC50 (TNKS2 ARC4 [2]; inhibitor)?
Answer: The IC50 was 255 µM.

Question: For `COc1cccc(C(=O)C2=C(O)C(=O)N(CCCN3CCOCC3)C2c2ccccc2)c1` (centres unmarked) [compound 32, 32], which “ΔTm ± SD (°C)” value (TNKS2 ARC4 [1]) is on record?
Answer: The value was 0.23 ± 0.25 °C.

Question: And the IC50 (TNKS2 ARC4 [2])?
Answer: The IC50 was > 1000 µM.

Question: Which “ΔTm ± SD (°C)” value (TNKS2 ARC4 [1]) does the source give for `N=C(N)NCCCN1C(=O)C(O)=C(C(=O)c2ccc3c(c2)OCCO3)C1c1ccccc1` (centres unmarked) [S3] here?
Answer: The value was 1.20 ± 0.19 °C.

Question: And the IC50 (TNKS2 ARC4 [2])?
Answer: Its IC50 is 133 µM.

Question: Which “ΔTm ± SD (°C)” value (TNKS2 ARC4 [1]) does the source give for `Cc1ccccc1COc1ccc(C(=O)C2=C(O)C(=O)N(CCCN(C)C)C2c2cccc(O)c2)cc1` (centres unmarked) [compound 28, 28] here?
Answer: The value was -0.20 ± 0.22 °C.

Question: What about the IC50 (TNKS2 ARC4 [2]; inhibitor) of the same compound?
Answer: Its IC50 is > 1000 µM.

Question: With `O=C(C1=C(O)C(=O)N(Cc2ccccc2)C1c1cccc(O)c1)c1ccc2c(c1)OCCO2` (centres unmarked) [compound 36, 36] as the compound, how does the “ΔTm ± SD (°C)” value (TNKS2 ARC4 [1]) read?
Answer: The value was 0.45 ± 0.25 °C.

Question: And the IC50 (TNKS2 ARC4 [2])?
Answer: The IC50 was 23 µM.

Question: Which “ΔTm ± SD (°C)” value (TNKS2 ARC4 [1]) does the source give for `CN(C)CCCN1C(=O)C(O)=C(C(=O)c2ccc3c(c2)oc(=O)n3C)C1c1ccccc1` (centres unmarked) [compound 27, 27] here?
Answer: Its value is -0.03 ± 0.11 °C.

Question: What about the IC50 (TNKS2 ARC4 [2]; inhibitor) of the same compound?
Answer: The IC50 was > 1000 µM.

Question: For `O=C(C1=C(O)C(=O)N(CCc2ccccc2)C1c1ccccc1)c1ccc2c(c1)OCCO2` (centres unmarked) [compound 41, 41], which “ΔTm ± SD (°C)” value (TNKS2 ARC4 [1]) is on record?
Answer: Its value is 0.91 ± 0.31 °C.

Question: What about the IC50 (TNKS2 ARC4 [2]; inhibitor) of the same compound?
Answer: The IC50 was 65 µM.
